The results in this text go back to patent US8507547B2, “Anti-fatigue agents and oral compositions containing andrographolide as active ingredient” (Suntory Holdings Limited, priority 2007, dated 2013).

This series has as its system Balb/c mice. As to the kind of experiment: Water-immersion and sleep-disturbance test (weight-loaded forced swimming test, swimming time). Type of series: in vivo. An excerpt: The first test is measurement of a swimming time in a water-immersion and sleep-disturbance test. This is described in detail below in Example 1. Mice raised in an environment, such as a water-immersed environment, where they were not allowed to take enough sleep or to take a comfortable posture so that they could take neither physical nor mental rest were weighted and forced to swim, and a length of time that passed until noses of the mice sank under the water for a period of 10 seconds or longer was measured (weight-loaded forced swimming test) to determine their fatigue level.
That is to say, since this animal model is a physical and mental fatigue model as well as an organ fatigue model described below, anti-fatigue action against physical and/or mental fatigue would be confirmed if the swimming time becomes longer as a result of administration of the test substance. Such anti-fatigue action is considered to be involved in reduction in fatigue stress, maintenance of physical energy under fatigue conditions (enhancement of body strength), improvement in endurance, and the like.
Effect of andrographolide on fatigue from water immersion and sleep disturbance was examined using a partially modified method of Tanaka et al. (Neuroscience Let. 352, 159-162, 2003). […] Four out of the five groups were reared as water-immersed groups; the groups were kept in cages in such a manner that each of the cages was filled with tap water at 23° C. with a water depth of 7 mm, instead of a floor covering, so that the mice were immersed in water and deprived of sleep. The mice were immersed in water for two days, andrographolide (Aldrich corp., purity 98%) was forcibly administered orally to the mice with doses of 0.5, 2, 8 mg per kilogram of body weight once daily during the two days (water-immersed and andrographolide-administered group). As a control group, one of the groups was immersed in water for two days, and distilled water was forcibly given orally to the group once daily during the two days (water-immersed control group). The remaining one of the five groups was reared as a normally-reared group; this group was kept in a cage with a normal floor covering, and distilled water was forcibly given orally to the group once daily during the two-day rearing (normally-reared control group). After the two days, each of the mice was provided with a weight corresponding to 8% of its body weight, which weight was attached to its tale, and then the mice were forced to swim in a water tank having a diameter of 18 cm and filled with water having a depth of 30 cm. A length of time that passed until the mice sank under water for a period of 10 seconds or longer (swimming time) was measured (weight-loaded forced swimming test).
The swimming time of the mice of the water-immersed group was shorter than that of the mice of the normally-reared group because of fatigue from the water immersion and sleep disturbance. The effect of andrographolide on the fatigue from the water immersion and sleep disturbance was examined by determining recovery of a reduction in the swimming time of the mice of the water-immersed group after the administration of andrographolide.
In accordance with the procedure described in Example 1, effect on water-immersion and sleep-disturbance fatigue was examined in a case in which andrographolide was administered alone to mice, a case in which alpha-lipoic acid was administered alone to mice, and a case in which a combination of andrographolide and alpha-lipoic acid was administered to mice. Eight-week-old male Balb/c mice were used as a test animal. […] Four out of the five groups served as water-immersed groups, and each of the groups was kept in a cage filled with tap water at 23° C. with a water depth of 7 mm, instead of a floor covering, so that the mice were immersed in water and deprived of sleep. […]

Turning to `C=C1CC[C@@H]2[C@](C)(CO)[C@H](O)CC[C@@]2(C)[C@@H]1C/C=C1/C(=O)OC[C@H]1O` [andrographolide], the “reduction in the swimming time” value is, setting by setting: (0.25 mg per kilogram of body weight orally once daily during two days of water immersion, FIG. 1(B)) “prevented reduction in the swimming time”; (200 mg per kilogram of body weight orally once daily during two days of water immersion, FIG. 1(C)) “prevented reduction in the swimming time”; (0.5, 2, 8 mg per kilogram of body weight orally once daily during two days of water immersion, FIG. 1(A)) “prevented in a dose-dependent manner”. In addition, the “toxicity to the mice” value (200 mg per kilogram of body weight orally once daily for two days) was “no toxicity to the mice was observed”. Also, where the note is “Example 5, FIG. 5, andrographolide 0.25 mg/kg (5a), alpha-lipoic acid 50 mg/kg (5b) or both (5c), orally once daily during two days of water immersion”, the “shortening of the swimming time” value is listed as “prevented from shortening”. Further, the “increase rate of the swimming time” value (Example 5, swimming time of normally-reared group minus water-immersed control group = 100%, andrographolide 0.25 mg/kg, alpha-lipoic acid 50 mg/kg, alone or combined) is reported as 5%.
